Assay results taken from patent US10508088B2, “Methods using HDAC11 inhibitors” (FORMA Therapeutics, Inc., priority 2016, dated 2019).

What was measured:
[1] = system: H1650 side population stem-like cells (EGFR mutation); experiment: Sphere formation assay with stem-like side population NSCLC cells; format: cell-based; conditions: H1650 SP cells, 0.5-5.0 μM, Day 10
Experimental: (§1) In order to investigate the role of HDAC11 in the self-renewal of stem-like cancer cells, sphere formation assays were conducted with NSCLC side population (SP) stem-like cells. A549 and NCI-H1650 cells were obtained from the ATCC. Asynchronously growing A549 or NCI-H1650 cells were washed once with phosphate buffered saline (PBS) and harvested using Accutase solution (Sigma Aldrich) and resuspended in DMEM-F12K medium (Gibo, Life Technologies) with 2% fetal bovine serum (FBS) at 1×10^6 cells/ml density. The cells were incubated with 4 μg/ml of Hoechst 33342 dye (Life Technologies) for 90 min at 37° C. in the presence or absence of 1 μM Fumitremorgin C (Sigma-Aldrich) which was used as a control sample to set the gate during sorting. The Hoechst stained cells were sorted using the BD FACSAria cell sorter. The sorted SP cells were plated in 96-well ultra-low adherent plate (Corning Inc) at the cell density of 1000 cells/100 μl/well in stem cell selective medium (DMEM:F12K supplemented with N2 supplement, 10 ng/mL epidermal growth factor (EGF) and 10 ng/ml basic fibroblast growth factor (bFGF) (Sigma-Aldrich) at 37° C. for 7-10 days. The spheres were observed and acquired using EVOS FL microscope system (Life Technologies Inc., USA). The numbers of spheres greater than or equal to 50 μm were counted. To study the effect of the HDAC11 inhibitors, the appropriate concentrations of the compounds were added to the wells on Day 0 and Day 5 and the image acquisition and analysis of the spheres were performed on Day 10. The sphere formation assays were performed twice with triplicates of each treatment in every assay.

[2] = system: A549 side population stem-like cells (KRAS mutation); experiment: as above; format: cell-based; conditions: A549 SP cells, 0.5-5.0 μM, Day 10
Experimental: as §1

[3] = system: Sox2, Gli1, Yap1 mRNA in H1650 cells; experiment: QRT-PCR assay for stem cell transcription factors; format: cell-based; conditions: H1650, 72 hours
Experimental: (§2) Given the effects of HDAC11 inhibition on stem-like side population cells, the effects on the expression of stem cell transcription factors was determined using QRT-PCR. A549 or H1650 cells were plated in 60 mm cell culture dishes (120,000 cells). The next day, HDAC11 inhibitors were added at various concentrations and incubated for 72 hours. For the siRNA experiments, A549 cells were plated in 60 mm cell culture dishes (120,000 cells per dish). The siRNAs (Santa Cruz Biotechnologies sc-106896 or ThermoFisher Scientific Cat#4392420) were transfected at a concentration of 100 and 150 pmoles into cells using Oligofectamine reagent (Invitrogen) as per manufacturer's protocol. A non-targeting siRNA (Ambion AM4635) was used as a control for all the transfection experiments. The cells were harvested after 72 hours post transfection. At the end of the treatments, cells were scraped, lysed and total RNA was isolated by RNeasy miniprep kit from Qiagen following the manufacturer's protocol (RNeasy mini kit Cat No. 74104). 1 μg of RNA was converted into cDNA using iScript cDNA synthesis kit (BioRad) in a 20 μl total reaction volume. Levels of mRNA were further analyzed using quantitative real time-PCR (qRT-PCR) that was performed in CFX96 Real time system using BioRad iQ SYBR Green supermix. The reaction was set with 5 μl of SYBR Green, 1 μl of 1 μM Forward primer, 1 μl of 1 μM Reverse primer, 0.5 μl of cDNA and 4.5 μl of water in a total 12 μl reaction. Data was normalized using GAPDH as an internal control and fold change was calculated by 2^−Delta-DeltaCt method. First the Delta-Ct was calculated (Delta-Ct=Ct Gene−Ct GAPDH). Next Delta-Delta-Ct was calculated (Delta-Delta-Ct=Delta-Ct treatment−Delta-Ct control). Finally fold change was calculated by 2^−Delta-DeltaCt.

[4] = system: Sox2, Gli1, Yap1 mRNA in A549 cells; experiment: QRT-PCR assay for stem cell transcription factors; format: cell-based; conditions: A549, 72 hours
Experimental: as §2

HDAC11 = HDAC11 (Homo sapiens (Human), UniProt Q96DB2); experiment: HDAC inhibition assay, electrophoretic mobility shift (Nanosyn); format: biochemical; conditions: for selectivity over HDACs 1-10: HDAC11 versus HDACs 1-10; for IC50: read-out: HDAC Biochemical IC50 HDAC11
Chain of HDAC11 (Q96DB2 whole entry): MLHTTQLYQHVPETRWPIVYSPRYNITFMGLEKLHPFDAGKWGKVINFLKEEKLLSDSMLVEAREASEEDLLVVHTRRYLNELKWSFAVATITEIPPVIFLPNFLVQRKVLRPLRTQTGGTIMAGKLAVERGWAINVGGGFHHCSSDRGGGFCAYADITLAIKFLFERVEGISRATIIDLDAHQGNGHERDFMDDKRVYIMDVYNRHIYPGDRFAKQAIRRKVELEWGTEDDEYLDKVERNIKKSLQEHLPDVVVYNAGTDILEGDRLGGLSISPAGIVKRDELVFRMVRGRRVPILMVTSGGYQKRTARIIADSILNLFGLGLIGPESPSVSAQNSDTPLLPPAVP
Experimental: This example describes in vitro inhibition properties of exemplary HDAC11 inhibitors for various HDACs. HDAC inhibition assays were performed using an electrophoretic mobility shift assay at Nanosyn, Inc. (Santa Clara, Calif.). Full length human recombinant HDAC proteins were expressed in the baculoviral system and purified by affinity chromatography. A human recombinant HDAC3 was co-expressed with nuclear receptor corepressor (Ncor2). The following peptide substrates were used: FAM-RHKK(Ac)-NH2 for HDAC3, HDAC6 and HDAC8; FITC-H3K27(Ac)-NH2 for HDAC1, HDAC2 and HDAC10; FAM-RHKK(tri-fluor-Ac)-NH2 for HDAC4, HDAC5, HDAC7, HDAC9 and HDAC11. Reactions consisting of compound, enzyme, and substrate were performed in reaction buffer (comprised of 100 mM HEPES, pH7.5, 25 mM KCl, 0.1% bovine serum albumin, 0.01% Triton X-100) at 25° C. and quenched by the addition of termination buffer (100 mM HEPES, pH7.5, 0.01% Triton X-100, 0.05% SDS). The fluorescence intensity of the electrophoretically separated de-acetylated product and substrate peptide were measured and analyzed using the LabChip® 3000 microfluidic electrophoresis instrument (Perkin Elmer/Caliper Life Sciences). The IC50 values of inhibitors were determined by fitting the %-inhibition curves with 4 parameter dose-response model using XLfit 4 software (IDBS).

NCI-H2170 cells = experiment: Cell proliferation assay with combination treatment (MTT); format: cell-based; conditions: H2170, combination with GDC-0449 (Vismodegib) or BMS-833923, 96 hours
Experimental: (§3) Selective HDAC11 inhibitors may be useful in combination with other targeted agents, including Jak2 inhibitors and Smoothened inhibitors. The effect of combination with the Smoothened inhibitors GDC-0449 (Vismodegib) and BMS-833923 was tested in lung cancer cell lines. A549 and NCI-H2170 cells were obtained from the ATCC. H2170 is a squamous carcinoma cell line. Cell viability was assessed using MTT reagent (Thiazolyl Blue Tetrazolium Bromide) (Sigma-Aldrich). The cells were grown in 96-well plates at a density of 3000-5000 cells/well in triplicates. The HDAC11 inhibitors were added to the adherent cells at different concentrations and treatment was carried out for 96 hours. After treatments, the cells were incubated with the 1 mg/mL MTT reagent at 37° C. for 1 hour. The reaction was terminated with DMSO that solubilizes the formazan product formed. Absorbance at 590 nm was recorded in a plate reader.

A549 cells = experiment: as above; format: cell-based; conditions: A549, combination with GDC-0449 (Vismodegib) or BMS-833923, 96 hours
Experimental: as §3

| SMILES | growth of stem-like cancer cells (sphere formation) [1] | growth of stem-like cancer cells (sphere formation) [2] | expression of Gli1 and Yap1 [3] | expression of Sox2 [3] | expression of Gli1 and Yap1 [4] | expression of Sox2 [4] | selectivity over HDACs 1-10 (HDAC11) [fold] | IC50 (HDAC11) [nM] | cell viability, combination with the Smoothened inhibitors (NCI-H2170 cells) | cell viability, combination with the Smoothened inhibitors (A549 cells) |
| --- | --- | --- | --- | --- | --- | --- | --- | --- | --- | --- |
| O=C(NO)c1cccc(Nc2nc3cc(Cl)c(Cl)cc3o2)c1 [HDTK010, 3-((5,6-dichlorobenzo[d]oxazol-2-yl)amino)-N-hydroxybenzamide] | prevented growth | prevented growth | decreased expression | decreased expression | decreased expression | decreased expression | > 200 | 1 to 5 | decreased cell viability | decreased cell viability |
| O=C(NO)c1cccc2c1C[C@]1(CCN(Cc3ccc(Cl)c(C(F)(F)F)c3)C1=O)C2 [HDTK054, (S)-1′-(4-chloro-3-(trifluoromethyl)benzyl)-N-hydroxy-2′-oxo-1,3-dihydrospiro[indene-2,3′-pyrrolidine]-4-carboxamide] | prevented growth | prevented growth | decreased expression | decreased expression | decreased expression | decreased expression | > 200 | 10 to 50 | decreased cell viability | decreased cell viability |
